In patent US8575163B2, “Pyrrolopyridinylpyrimidin-2-ylamine derivatives” (Merck Patent GmbH, priority 2009, dated 2013) one finds IC50 data, which are given here for 23 molecules.

The target in this assay is T1, PDK1 (Homo sapiens, UniProt O15530).
T1 construct: His6 (N)
T1 sequence (O15530 51-556 limits assumed): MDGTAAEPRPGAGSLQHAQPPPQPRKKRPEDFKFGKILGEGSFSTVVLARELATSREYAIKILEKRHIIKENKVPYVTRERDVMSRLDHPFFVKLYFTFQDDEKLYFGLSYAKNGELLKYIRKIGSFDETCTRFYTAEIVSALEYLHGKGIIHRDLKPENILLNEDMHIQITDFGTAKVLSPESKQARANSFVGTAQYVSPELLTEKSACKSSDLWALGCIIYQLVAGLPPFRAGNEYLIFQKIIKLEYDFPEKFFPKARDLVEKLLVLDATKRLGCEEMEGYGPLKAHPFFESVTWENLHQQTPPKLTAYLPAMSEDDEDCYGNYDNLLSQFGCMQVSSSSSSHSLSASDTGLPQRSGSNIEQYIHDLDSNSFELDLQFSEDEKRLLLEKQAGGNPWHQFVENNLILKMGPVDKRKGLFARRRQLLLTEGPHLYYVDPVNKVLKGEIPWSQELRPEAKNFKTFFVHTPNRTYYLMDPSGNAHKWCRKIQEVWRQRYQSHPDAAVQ
As to the kind of experiment: Test for the inhibition of PDK1 (flashplate, 33P-ATP). It counts as biochemical. The following applies: His6-PDK1 3.4 nM, 4 μM ATP, 30° C., 60 min. How it is done: The experimental batches are carried out in a flashplate system with 384 wells/microtitration plate.
In each case, the PDK1 sample His6-PDK1(1-50)(3.4 nM), the PDK1 substrate biotin-bA-bA-[…] (400 nM), 4 μM ATP (with 0.2 μCi of ^33 P-ATP/well) and the test substance in 50 μl of conventional experimental solution per well are incubated at 30° C. for 60 min. The test substances are employed in corresponding concentrations (if desired in a dilution series). The control is carried out without test substance. The reaction is stopped using standard methods and washed. The activity of the kinase is measured via the incorporated radioactivity in top count. In order to determine the non-specific kinase reaction (blank value), the experimental batches are carried out in the presence of 100 nM staurosporin.
The radioactivity (decompositions per minute) of the blank value (no use of test substance in the presence of staurosporin) is subtracted from all other radioactivity values. The controls (kinase activity without test substance) are set equal to 100 percent and all other radioactivity values (after subtracting the blank value) are expressed set in relation thereto (for example in % of the control).
[formula] IC50 values (50% inhibition) are determined with the aid of statistics programmes, such as, for example, RS1.

pIC50: −log10 of the molar value.

By pIC50 is commonly meant the IC50 on a negative log10 scale, so that one unit is a factor of ten. Turning to `CC(O)(c1ccccc1)c1cc(-c2c[nH]c3ncc(-c4cnn(Cc5cccs5)c4)cc23)nc(N)n1` (centres unmarked) [A47, 1-{2-amino-6-[5-(1-thiophen-2-ylmethyl-1H-pyrazol-4-yl)-1H-pyrrolo[2,3-b]-pyridin-3-yl]pyrimidin-4-yl}-1-phenylethanol], the negative-log IC50 (pIC50) was 7.00.
The molecule `CCC(OCOC)(c1cc(-c2c[nH]c3ncc(-c4cnn(C)c4)cc23)nc(N)n1)c1ccncc1F` (centres unmarked) [A37, 4-[1-(3-fluoropyridin-4-yl)-1-methoxymethoxypropyl]-6-[5-(1-methyl-1H-pyrazol-4-yl)-1H-pyrrolo[2,3-b]pyridin-3-yl]pyrimidin-2-ylamine] showed a negative logarithm of the IC50 (pIC50) of 7.60. This pIC50 is 0.60 log units higher than that of the molecule before.
Next, `COCOC(C)(c1cccc(F)c1)c1nc(N)nc(-c2c[nH]c3ncc(Br)cc23)c1F` (centres unmarked) [A12, 4-(5-bromo-1H-pyrrolo[2,3-b]pyridin-3-yl)-5-fluoro-6-[1-(3-fluorophenyl)-1-methoxymethoxyethyl]pyrimidin-2-ylamine]: below 4.70; `CC(O)(c1ccccc1)c1cc(-c2c[nH]c3ncc(-c4cnn(CCC(=O)N5CCOCC5)c4)cc23)nc(N)n1` (centres unmarked) [A68, 3-(4-{3-[2-amino-6-(1-hydroxy-1-phenylethyl)pyrimidin-4-yl]-1H-pyrrolo-[2,3-b]pyridin-5-yl}pyrazol-1-yl)-1-morpholin-4-ylpropan-1-one]: 7.13.
The same measure for `CCCC(O)(c1ccccc1)c1cc(-c2c[nH]c3ncc(Br)cc23)nc(N)n1` (centres unmarked) [A16, 1-[2-amino-6-(5-bromo-1H-pyrrolo[2,3-b]pyridin-3-yl)pyrimidin-4-yl]-1-phenylbutan-1-ol]: 6.55; for `Cc1ccccc1C(C)(O)c1cc(-c2c[nH]c3ncc(-c4cnn(CCO)c4)cc23)nc(N)n1` (centres unmarked) [A89, 1-(2-amino-6-{5-[1-(2-hydroxyethyl)-1H-pyrazol-4-yl]-1H-pyrrolo[2,3-b]-pyridin-3-yl}pyrimidin-4-yl)-1-o-tolylethanol]: 7.72; for `CC(O)(c1ccccc1)c1cc(-c2c[nH]c3ncc(-c4cnn(CCO)c4)cc23)nc(N)n1` (centres unmarked) [A99, 1-(2-amino-6-{5-[1-(2-hydroxyethyl)-1H-pyrazol-4-yl]-1H-pyrrolo[2,3-b]-pyridin-3-yl}pyrimidin-4-yl)-1-phenylethanol]: 7.39.
Molecule `CC(C)n1cc(-c2cnc3[nH]cc(-c4cc(C(C)(O)C(C)C)nc(N)n4)c3c2)cn1` (centres unmarked) [A88, 2-{2-amino-6-[5-(1-isopropyl-1H-pyrazol-4-yl)-1H-pyrrolo[2,3-b]pyridin-3-yl]-pyrimidin-4-yl}-3-methylbutan-2-ol] gave a pIC50 of 7.55.
`COC(C)(c1ccccc1)c1cc(-c2c[nH]c3ncc(-c4cnn(CCO)c4)cc23)nc(N)n1` (centres unmarked) [A27, 2-(4-{3-[2-amino-6-(1-methoxy-1-phenylethyl)pyrimidin-4-yl]-1H-pyrrolo-[2,3-b]pyridin-5-yl}pyrazol-1-yl)ethanol] showed a pIC50 of 7.49.
The same measure for `CCC(O)(c1cccc(F)c1)c1cc(-c2c[nH]c3ncc(-c4ccc(CO)cc4)cc23)nc(N)n1` (single isomer, unassigned) [A33, 1-{2-amino-6-[5-(4-hydroxymethylphenyl)-1H-pyrrolo[2,3-b]pyridin-3-yl]-pyrimidin-4-yl}-1-(3-fluorophenyl)propan-1-ol]: 6.77; for `CNc1nc(-c2c[nH]c3ncc(-c4cnn(CCO)c4)cc23)cc(C(C)(O)c2ccccc2)n1` (centres unmarked) [A95, 1-(6-{5-[1-(2-hydroxyethyl)-1H-pyrazol-4-yl]-1H-pyrrolo[2,3-b]pyridin-3-yl}-2-methylaminopyrimidin-4-yl)-1-phenylethanol]: 7.74; for `Cn1cc(-c2cnc3[nH]cc(-c4cc(C(C)(O)c5ccccc5F)nc(N)n4)c3c2)cn1` (racemic) [A102, 1-{2-amino-6-[5-(1-methyl-1H-pyrazol-4-yl)-1H-pyrrolo[2,3-b]pyridin-3-yl]-pyrimidin-4-yl}-1-(2-fluorophenyl)ethanol]: 8.00.
Next, `CC(O)(c1ccccc1)c1cc(-c2c[nH]c3ncc(-c4cnn(CCC(=O)NCCN)c4)cc23)nc(N)n1` (centres unmarked) [A60, N-(2-aminoethyl)-3-(4-{3-[2-amino-6-(1-hydroxy-1-phenylethyl)pyrimidin-4-yl]-1H-pyrrolo[2,3-b]pyridin-5-yl}pyrazol-1-yl)propionamide]: 7.62; `CC(O)(c1ccccc1)c1cc(-c2c[nH]c3ncc(-c4cnn(CCC(N)=O)c4)cc23)nc(N)n1` (centres unmarked) [A71, 3-(4-{3-[2-amino-6-(1-hydroxy-1-phenylethyl)pyrimidin-4-yl]-1H-pyrrolo-[2,3-b]pyridin-5-yl}pyrazol-1-yl)propionamide]: 7.82; `CNC(=O)CCn1cc(-c2cnc3[nH]cc(-c4cc(C(C)(OCOC)c5ccccc5)nc(N)n4)c3c2)cn1` (centres unmarked) [A75, 3-(4-{3-[2-amino-6-(1-methoxymethoxy-1-phenylethyl)pyrimidin-4-yl]-1H-pyrrolo[2,3-b]pyridin-5-yl}pyrazol-1-yl)-N-methylpropionamide]: 7.10.
Next, `CC(O)(c1ccccc1)c1cc(-c2c[nH]c3ncc(-c4cnn(C(CF)CF)c4)cc23)nc(N)n1` (centres unmarked) [A80, 1-(2-amino-6-{5-[1-(2-fluoro-1-fluoromethylethyl)-1H-pyrazol-4-yl]-1H-pyrrolo[2,3-b]pyridin-3-yl}pyrimidin-4-yl)-1-phenylethanol]: 7.77.
In turn, `CC(O)(c1ccccc1)c1cc(-c2c[nH]c3ncc(-c4cnn(C(F)F)c4)cc23)nc(N)n1` (centres unmarked) [A40, 1-{2-amino-6-[5-(1-difluoromethyl-1H-pyrazol-4-yl)-1H-pyrrolo[2,3-b]pyridin-3-yl]pyrimidin-4-yl}-1-phenylethanol] gave a pIC50 of 7.27.
Next, `CCC(O)(c1ccncc1)c1cc(-c2c[nH]c3ncc(-c4cnn(C)c4)cc23)nc(N)n1` (centres unmarked) [A28, 1-{2-amino-6-[5-(1-methyl-1H-pyrazol-4-yl)-1H-pyrrolo[2,3-b]pyridin-3-yl]-pyrimidin-4-yl}-1-pyridin-4-ylpropan-1-ol]: 8.16.
As to `Cn1cc(-c2cnc3[nH]cc(-c4cc(C(C)(O)c5cccnc5)nc(N)n4)c3c2)cn1` (centres unmarked) [A24, 1-{2-amino-6-[5-(1-methyl-1H-pyrazol-4-yl)-1H-pyrrolo[2,3-b]pyridin-3-yl]-pyrimidin-4-yl}-1-pyridin-3-ylethanol], the pIC50 was 7.25.
Take `CC(O)(c1ccccc1)c1cc(-c2c[nH]c3ncc(-c4cnn(CCC(=O)N5CCC(O)C5)c4)cc23)nc(N)n1` (centres unmarked) [A65, 3-(4-{3-[2-amino-6-(1-hydroxy-1-phenylethyl)pyrimidin-4-yl]-1H-pyrrolo-[2,3-b]pyridin-5-yl}pyrazol-1-yl)-1-(3-hydroxypyrrolidin-1-yl)propan-1-one]: the negative-log IC50 (pIC50) was 7.60. Compared with the last molecule, the pIC50 is 0.35 log units higher.
Molecule `CC(O)(c1ccccc1)c1cc(-c2c[nH]c3ncc(Br)cc23)nc(N)n1` (centres unmarked) [A86, 1-[2-amino-6-(5-bromo-1H-pyrrolo[2,3-b]pyridin-3-yl)pyrimidin-4-yl]-1-phenylethanol] gave a negative logarithm of the IC50 (pIC50) of 7.05.
The same measure for `CCC(O)(c1ccncc1)c1cc(-c2c[nH]c3ncc(-c4cn[nH]c4)cc23)nc(N)n1` (single isomer, unassigned) [A44, 1-{2-amino-6-[5-(1H-pyrazol-4-yl)-1H-pyrrolo[2,3-b]pyridin-3-yl]pyrimidin-4-yl}-1-pyridin-4-ylpropan-1-ol]: 7.77; for `COCOC(C)(c1ccccc1)c1cc(-c2c[nH]c3ncc(-c4cnn(C)c4)cc23)nc(N)n1` (centres unmarked) [A17, 4-(1-methoxymethoxy-1-phenylethyl)-6-[5-(1-methyl-1H-pyrazol-4-yl)-1H-pyrrolo[2,3-b]pyridin-3-yl]pyrimidin-2-ylamine]: 7.24.
